Tests used:
[1] = Thermodynamic solubility study (37° C., 4 hours); type: physicochemical; details: PBS pH = 7.4, 4 hours
Experimental: The resulted mixtures/oversaturated solutions are shaken at 37° C. for 4 hrs (to the solution equilibrium) and are filtrated on a Millipore MultiSreen Filter Plate (0.45 μm). Concentrations of the filtrates are determined by LC/UV/MS based on a 5-point calibration. (When the solid material dissolved totally in the aqueous test medium the result should be considered as a minimal value.) Results are shown in Table 2.

[2] = molecular target: T1, human D2L receptors (Homo sapiens (Human), UniProt P14416); assay: Competitive binding assay at human D2L receptors using [3H]raclopride; details: CHO-K1 membranes, 2 nM [3H]raclopride
T1 sequence (P14416 whole entry): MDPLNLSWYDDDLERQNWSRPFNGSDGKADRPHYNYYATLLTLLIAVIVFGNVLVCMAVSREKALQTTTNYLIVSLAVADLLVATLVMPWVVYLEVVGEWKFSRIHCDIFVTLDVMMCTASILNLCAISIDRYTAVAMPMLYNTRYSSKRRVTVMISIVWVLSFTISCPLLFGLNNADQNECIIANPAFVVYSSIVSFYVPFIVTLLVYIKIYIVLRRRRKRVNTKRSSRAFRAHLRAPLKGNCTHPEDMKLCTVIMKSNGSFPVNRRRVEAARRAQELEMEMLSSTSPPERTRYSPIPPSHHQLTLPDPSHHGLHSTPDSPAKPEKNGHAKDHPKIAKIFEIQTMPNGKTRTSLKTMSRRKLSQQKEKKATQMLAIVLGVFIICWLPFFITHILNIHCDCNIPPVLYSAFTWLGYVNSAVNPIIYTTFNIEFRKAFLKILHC
Experimental: (§1) The membrane preparation was then aliquoted and stored at −70° C.

[3] = molecular target: T1, human D2L receptors; assay: Competitive binding assay at human D2L receptors using [3H]spiperone; details: CHO-K1 membranes, 0.16 nM [3H]spiperone
Experimental: CHO-K1 cells expressing human recombinant D2L receptors were washed with phosphate-buffered saline (PBS). Cells were scraped from the plates and centrifuged at 1000×g. Cells were disrupted using a Teflon® pestle homogenizer in buffer containing 25 mM Tris-HCl, pH=7.4, 6 mM MgCl2, 1 mM EDTA, 10 mM phenylmethylsulfonyl fluoride (PMSF). The resulting suspension was centrifuged at 1000×g. The supernatant was collected and centrifuged at 41,000×g. The supernatant was discarded, and the pellet was resuspended in above buffer. The membrane preparation was then aliquoted and stored at −70° C.
Non-specific binding (NSB) was determined in the presence of 10 μM haloperidol (Sigma-Aldrich). After incubation, samples were filtered over UniFilter® GF/C plates (PerkinElmer), washed and Microscint™-20 scintillation cocktail was added. Radioactivity was determined with a MicroBeta^2® microplate counter (PerkinElmer).
From scintillation counts, NSB was subtracted to yield specific binding which was normalized to vehicle-treated samples and converted to displacement % values. IC50 values were determined by a non-linear, least squares regression analysis using MathIQ™ (ID Business Solutions Ltd., Surrey, UK).

[4] = molecular target: human 5-HT2A receptor (Homo sapiens (Human), UniProt P28223); assay: Competitive binding assay at human 5-HT2A receptors ([3H]ketanserin); details: CHO-K1 membranes, 1 nM [3H]ketanserin
Sequence of human 5-HT2A receptor (P28223 whole entry): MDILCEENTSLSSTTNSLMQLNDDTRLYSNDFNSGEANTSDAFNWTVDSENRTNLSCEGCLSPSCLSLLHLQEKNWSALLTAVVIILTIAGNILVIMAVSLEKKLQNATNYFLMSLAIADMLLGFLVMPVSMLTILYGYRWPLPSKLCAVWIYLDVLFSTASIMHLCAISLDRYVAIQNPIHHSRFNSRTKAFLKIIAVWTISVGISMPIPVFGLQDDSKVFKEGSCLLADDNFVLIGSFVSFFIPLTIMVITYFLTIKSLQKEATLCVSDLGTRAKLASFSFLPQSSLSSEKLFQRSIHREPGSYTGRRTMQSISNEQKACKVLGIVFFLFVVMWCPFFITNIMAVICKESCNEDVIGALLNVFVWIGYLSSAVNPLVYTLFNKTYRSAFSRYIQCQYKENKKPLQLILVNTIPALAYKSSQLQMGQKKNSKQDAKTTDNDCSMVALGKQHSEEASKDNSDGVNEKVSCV
Experimental: Radioactivity was determined with a MicroBeta^2® microplate counter (PerkinElmer).

[5] = Thermodynamic solubility study (RT, 24 hours); type: physicochemical; details: PBS pH = 7.4, 24 hours
Experimental: The resulted mixtures were shaken at room temperature (RT) for 24 hrs (to the solution equilibrium) and were filtrated on a Millipore MultiSreen Filter Plate (0.45 μ). Concentrations of the filtrates were determined by LC/UV/MS based on a 5-point calibration. (When the solid material dissolved totally in the aqueous test medium the result should be considered as a minimal value.) Results are shown in Table 2.

[6] = molecular target: T2, human D3 receptors (Homo sapiens (Human), UniProt P35462); assay: Competitive binding assay at human D3 receptors using [3H]raclopride; details: CHO-K1 membranes, ca. […] [3H]raclopride
T2 sequence (P35462 whole entry): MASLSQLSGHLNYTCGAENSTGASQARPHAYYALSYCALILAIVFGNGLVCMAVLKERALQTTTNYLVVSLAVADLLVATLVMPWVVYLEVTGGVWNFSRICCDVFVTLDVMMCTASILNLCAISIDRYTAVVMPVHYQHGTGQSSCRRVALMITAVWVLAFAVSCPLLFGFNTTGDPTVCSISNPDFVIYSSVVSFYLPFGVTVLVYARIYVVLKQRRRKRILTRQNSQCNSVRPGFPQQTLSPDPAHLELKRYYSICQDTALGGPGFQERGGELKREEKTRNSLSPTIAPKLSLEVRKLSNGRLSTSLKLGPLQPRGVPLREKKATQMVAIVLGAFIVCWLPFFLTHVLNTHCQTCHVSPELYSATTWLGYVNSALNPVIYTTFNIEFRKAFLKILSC
Experimental: as §1

[7] = molecular target: T2, human D3 receptors; assay: Competitive binding assay at human D3 receptors using [3H]spiperone; details: CHO-K1 membranes, 0.7 nM [3H]spiperone
Experimental: Cells were scraped from the plates and centrifuged at 1000×g. […] The supernatant was collected and centrifuged at 41,000×g. The supernatant was discarded, and the pellet was resuspended in above buffer.
IC50 values were determined by a non-linear, least squares regression analysis using MathIQ™ (ID Business Solutions Ltd., Surrey, UK).

[8] = tested on: Phencyclidine-induced hypermotility in rats; assay: Phencyclidine-induced hypermotility in rats; type: in vivo, rat; details: minimum effective dose, time spent with ambulation over one hour
Experimental: Spontaneous locomotor activity was measured using a six-channel activity monitor manufactured by Experimetria Ltd. (Budapest, HU). […] Additional arrays of photocells (30 pairs) were placed along opposite sides of the cage at different heights (6.5 cm, 12 cm, 18 cm and 23 cm) in order to detect rearing responses.
Test compounds were administered to study animals either orally or subcutaneously, with ten animals per treatment group. In these studies, male Harlan-Wistar rats (Toxi-Coop, Budapest, HU) weighing 190-210 grams were used. After oral administration of test compound or vehicle, animals were individually habituated to the activity monitors for 30 minutes. In the cases of subcutaneous administration of test compounds, rats were first habituated for 15 minutes to the activity monitors, then treated with the test compound or vehicle followed by replacing them into the activity monitors for an additional 15-minute period of habituation. […]
Data were analyzed using GraphPad® Prism® 9 software (GraphPad, San Diego, CA, USA). […] Drug effect was evaluated using Analysis of Variance (ANOVA, or Welch's ANOVA when appropriate) followed by Dunnett's multiple comparisons test. When appropriate, the ED50 value was determined from percent inhibition data from linear regression analysis.

Compound	Thermodynamic sol. [1]	D2L pKi [3H]raclopride [2]	D2L pKi [3H]spiperone [3]	5-HT2A pKi [4]	Thermodynamic sol. [5]	D3 pKi [3H]raclopride [6]	D3 pKi [3H] spiperone [7]	PCP (MED, mg/kg) [8]
COCN(C)C(=O)N[C@H]1CC[C@H](CCN2CCN(c3cccc(Cl)c3Cl)CC2)CC1 [Example 2, N′-[(1r,4r)-4-{2-[4-(2,3-dichlorophenyl)piperazin-1-yl]ethyl}cyclohexyl]-N-(methoxymethyl)-N-methylurea]	58.93 ± 5.32 µM	8.90	8.93	7.81	50.93 ± 2.3 µM	9.15	9.77	
CCCN(C)C(=O)N[C@H]1CC[C@H](CCN2CCN(c3cccc(Cl)c3Cl)CC2)CC1 [Ref. Ex. 1, N-[(1r,4r)-4-{2-[4 (2,3-dichlorophenyl)piperazin-1-yl]ethyl}cyclohexyl]-N-methyl-N-propylurea, reference compound]	4.9 ± 0.3 µM				6.2 ± 0.3 µM			
CCCOCN(C)C(=O)N[C@H]1CC[C@H](CCN2CCN(c3cccc(Cl)c3Cl)CC2)CC1 [Example 3, N′-[(1r,4r)-4-{2-[4-(2,3-dichlorophenyl)piperazin-1-yl]ethyl}cyclohexyl]-N-methyl-N-(propoxymethyl)urea]	30.50 ± 3.06 µM	8.94	8.93		39.68 ± 2.15 µM		9.74	
CN(C)C(=O)N[C@H]1CC[C@H](CCN2CCN(c3cccc(Cl)c3Cl)CC2)CC1 [Ref. Ex. 2, N′-[(1r,4r)-4-{2-[4-(2,3-dichlorophenyl)piperazin-1-yl]ethyl}cyclohexyl]-N,N-dimethylurea, reference compound]								0.1 mg/kg
CCOCN(C)C(=O)N[C@H]1CC[C@H](CCN2CCN(c3cccc(Cl)c3Cl)CC2)CC1 [Example 1, N′-[(1r,4r)-4-{2-[4-(2,3-dichlorophenyl)piperazin-1-yl]ethyl}cyclohexyl]-N-(ethoxymethyl)-N-methylurea]	10.9 ± 0.3 µM			7.64	45.3 ± 0.6 µM			0.4 mg/kg

From US20250049786A1, “DOPAMINE D3/D2 RECEPTOR MODULATING COMPOUNDS” (Richter Gedeon Nyrt., priority 2023, published 2025)
